# PMC3402509 (Investigational New Drugs, 2011)
# Where two headings read alike, the source gives them in different places.
# Columns and labels:
# [1] = test system: NSCLC; conditions: dasatinib monotherapy, phase II; cited from earlier work
# [2] = Dasatinib pharmacokinetic studies in plasma; assay type: in vivo, patients; conditions: for Cmax: Cmax Geomean (%CV)
# [3] = test system: SFK PY-416 (P-SFK); test: P-SFK peripheral blood mononuclear cell; assay type: in vivo, patients; conditions: for P-SFK levels in PBMCs compared to same day pre-dasatinib dosing levels: day 15 (with cetuximab)
smiles,measurement,setting,value
"Cc1nc(Nc2ncc(C(=O)Nc3c(C)cccc3Cl)s2)cc(N2CCN(CCO)CC2)n1 [dasatinib, N-(2-chloro-6-methyl-phenyl)-2-(6-(4-(2-hydroxyethyl)-piperazin-1-yl)-2-methylpyrimidin-4-ylamino)thiazole-5-carboxamide]",patients with either a partial response or SD,[1],43%
same,DLT (patients),"dose level 1, dasatinib 100 mg once daily plus weekly cetuximab, 3 (3) patients (evaluable)",None
same,DLT (patients),"dose level 2, dasatinib 150 mg once daily plus weekly cetuximab, 19 (14) patients (evaluable)",1
same,DLT (patients),"dose level 2, dasatinib 150 mg once daily plus weekly cetuximab, 19 (14) patients (evaluable), listed as Dasatinib",1 (Headache)
same,DLT (patients),"dose level 3, dasatinib 200 mg once daily plus weekly cetuximab, 3 (2) patients (evaluable)",2
same,T-HALF Mean (SD),"[2]; 100 mg oral, Day 0 (alone), N=3",6.8 (0.1) h
same,T-HALF Mean (SD),"[2]; 100 mg oral, Day 15 (with cetuximab), N=3",6.4 (0.1) h
same,T-HALF Mean (SD),"[2]; 150 mg oral, Day 0 (alone), N=18",5.2 (1.0) h
same,T-HALF Mean (SD),"[2]; 200 mg oral, Day 0 (alone), N=3",5.1 (0.6) h
same,half-life,"[2]; human, plasma, po",5 to 6 h
same,Cmax,"[2]; human, plasma, po, 100 mg, 100 mg oral, Day 0 (alone), N=3",0.101 µg/mL
same,Tmax,"[2]; human, plasma, po, 100 mg, Tmax Med (Min, Max), 100 mg oral, Day 0 (alone), N=3",1 h
same,Cmax,"[2]; human, plasma, po, 150 mg, 150 mg oral, Day 0 (alone), N=18",0.144 µg/mL
same,Tmax,"[2]; human, plasma, po, 150 mg, Tmax Med (Min, Max), 150 mg oral, Day 0 (alone), N=18",1.5 h
same,Cmax,"[2]; human, plasma, po, 200 mg, 200 mg oral, Day 0 (alone), N=3",0.415 µg/mL
same,Tmax,"[2]; human, plasma, po, 200 mg, Tmax Med (Min, Max), 200 mg oral, Day 0 (alone), N=3",1 h
same,Tmax,"[2]; human, plasma, po, Tmax, text summary over dose levels",1 to 2 h
same,PK parameters (AUC and T-HALF) given alone (day 0) versus in combination with cetuximab (day 15),[2]; in vivo,comparable
same,P-SFK levels in PBMCs compared to baseline,"[3]; day 0, 4 hours following dasatinib dosing",tended to be reduced
same,P-SFK levels in PBMCs compared to baseline,"[3]; day 0, 8 hours following dasatinib dosing",significantly reduced
same,P-SFK levels in PBMCs compared to baseline,"[3]; day 0, 24 hours following dasatinib dosing",did not differ from baseline levels
same,P-SFK levels in PBMCs compared to same day pre-dasatinib dosing levels,"[3]; 8 hours, P=0.03",significantly decreased
same,P-SFK levels in PBMCs compared to same day pre-dasatinib dosing levels,"[3]; 24 hours, P=0.18",did not differ from pre-dasatinib dosing levels
